Consider 3 molecules from ChEMBL document CHEMBL5303573, “Mapping human microbiome drug metabolism by gut bacteria and their genes” (Nature, 2019).

Each structure is given as a SMILES string.

The first data set is described as follows: The drug is tested on Bacteroides vulgatus strain: ATCC8482 for biotransformation. The drug concentrations were measured before and after a 12-h incubation by liquid-chromatography-coupled mass spectrometry (LC–MS). Conditions: phocaeicola vulgatus, 2 µM.
With `COC(=O)Nc1nc2ccc(C(=O)c3ccccc3)cc2[nH]1` [MEBENDAZOLE], the “Bacterial Biotransformation” value is “Compound metabolized”.

`COCCCC/C(=N\OCCN)c1ccc(C(F)(F)F)cc1.O=C(O)/C=C\C(=O)O` [FLUVOXAMINE MALEATE]: the “Bacterial Biotransformation” value is on record as “Compound metabolized”.

`Fc1ccc([C@@H]2CCNC[C@H]2COc2ccc3c(c2)OCO3)cc1` [PAROXETINE]: the “Bacterial Biotransformation” value is listed as “Compound NOT metabolized”.

The conditions of a further data set: parabacteroides distasonis, 12 h, 2 µM.
Description: The drug is tested on Parabacteroides distasonis strain: ATCC8503 for biotransformation. The drug concentrations were measured before and after a 12-h incubation by liquid-chromatography-coupled mass spectrometry (LC–MS)
As for `COC(=O)Nc1nc2ccc(C(=O)c3ccccc3)cc2[nH]1` [MEBENDAZOLE], the “Bacterial Biotransformation” value was “Compound metabolized”.

Turning to `Fc1ccc([C@@H]2CCNC[C@H]2COc2ccc3c(c2)OCO3)cc1` [PAROXETINE], the “Bacterial Biotransformation” value is “Compound NOT metabolized”.

For another data set the following is noted: anaerostipes sp., 12 h, 2 µM.
Description: The drug is tested on Anaerostipes sp. strain: fecal isolate for biotransformation. The drug concentrations were measured before and after a 12-h incubation by liquid-chromatography-coupled mass spectrometry (LC–MS)
For `COC(=O)Nc1nc2ccc(C(=O)c3ccccc3)cc2[nH]1` [MEBENDAZOLE], the “Bacterial Biotransformation” value is on record as “Compound NOT metabolized”.

Take `COCCCC/C(=N\OCCN)c1ccc(C(F)(F)F)cc1.O=C(O)/C=C\C(=O)O` [FLUVOXAMINE MALEATE]: the “Bacterial Biotransformation” value was “Compound NOT metabolized”.

On to `Fc1ccc([C@@H]2CCNC[C@H]2COc2ccc3c(c2)OCO3)cc1` [PAROXETINE], for which the “Bacterial Biotransformation” value is “Compound metabolized”.

The nature of another data set: The drug is tested on Enterococcus faecalis strain: V583 for biotransformation. The drug concentrations were measured before and after a 12-h incubation by liquid-chromatography-coupled mass spectrometry (LC–MS). Conditions: 2 µM.
For the molecule `COC(=O)Nc1nc2ccc(C(=O)c3ccccc3)cc2[nH]1` [MEBENDAZOLE], the “Bacterial Biotransformation” value is recorded as “Compound NOT metabolized”.

Take `COCCCC/C(=N\OCCN)c1ccc(C(F)(F)F)cc1.O=C(O)/C=C\C(=O)O` [FLUVOXAMINE MALEATE]: the “Bacterial Biotransformation” value was “Compound NOT metabolized”.

For `Fc1ccc([C@@H]2CCNC[C@H]2COc2ccc3c(c2)OCO3)cc1` [PAROXETINE], the “Bacterial Biotransformation” value is reported as “Compound NOT metabolized”.

A further data set in a line: The drug is tested on Ruminococcus lactaris strain: ATCC29176 for biotransformation. The drug concentrations were measured before and after a 12-h incubation by liquid-chromatography-coupled mass spectrometry (LC–MS). Conditions: 2 µM.
Regarding `COCCCC/C(=N\OCCN)c1ccc(C(F)(F)F)cc1.O=C(O)/C=C\C(=O)O` [FLUVOXAMINE MALEATE], the “Bacterial Biotransformation” value is given as “Compound NOT metabolized”.

Regarding `Fc1ccc([C@@H]2CCNC[C@H]2COc2ccc3c(c2)OCO3)cc1` [PAROXETINE], the “Bacterial Biotransformation” value was “Compound NOT metabolized”.

The nature of another data set: The drug is tested on Escherichia coli strain: BW25113 for biotransformation. The drug concentrations were measured before and after a 12-h incubation by liquid-chromatography-coupled mass spectrometry (LC–MS). Conditions: 2 µM.
Consider `COC(=O)Nc1nc2ccc(C(=O)c3ccccc3)cc2[nH]1` [MEBENDAZOLE], for which the “Bacterial Biotransformation” value is recorded as “Compound NOT metabolized”.

Consider `COCCCC/C(=N\OCCN)c1ccc(C(F)(F)F)cc1.O=C(O)/C=C\C(=O)O` [FLUVOXAMINE MALEATE], for which the “Bacterial Biotransformation” value is “Compound NOT metabolized”.

For `Fc1ccc([C@@H]2CCNC[C@H]2COc2ccc3c(c2)OCO3)cc1` [PAROXETINE], the “Bacterial Biotransformation” value was “Compound NOT metabolized”.

The next data set can be described thus: The drug is tested on Clostridium sp. strain: fecal isolate for biotransformation. The drug concentrations were measured before and after a 12-h incubation by liquid-chromatography-coupled mass spectrometry (LC–MS). Conditions: 2 µM.
As for `COC(=O)Nc1nc2ccc(C(=O)c3ccccc3)cc2[nH]1` [MEBENDAZOLE], the “Bacterial Biotransformation” value is “Compound metabolized”.

For `COCCCC/C(=N\OCCN)c1ccc(C(F)(F)F)cc1.O=C(O)/C=C\C(=O)O` [FLUVOXAMINE MALEATE], the “Bacterial Biotransformation” value is “Compound metabolized”.

Consider `Fc1ccc([C@@H]2CCNC[C@H]2COc2ccc3c(c2)OCO3)cc1` [PAROXETINE], for which the “Bacterial Biotransformation” value is recorded as “Compound metabolized”.

The conditions of a further data set: bacteroides fragilis, 12 h, 2 µM.
Description: The drug is tested on Bacteroides fragilis strain: 3397 (T10) for biotransformation. The drug concentrations were measured before and after a 12-h incubation by liquid-chromatography-coupled mass spectrometry (LC–MS)
`COCCCC/C(=N\OCCN)c1ccc(C(F)(F)F)cc1.O=C(O)/C=C\C(=O)O` [FLUVOXAMINE MALEATE]: the “Bacterial Biotransformation” value is listed as “Compound metabolized”.

Consider `Fc1ccc([C@@H]2CCNC[C@H]2COc2ccc3c(c2)OCO3)cc1` [PAROXETINE], for which the “Bacterial Biotransformation” value is on record as “Compound NOT metabolized”.

The nature of the next data set: The drug is tested on Bacteroides caccae strain: ATCC43185 for biotransformation. The drug concentrations were measured before and after a 12-h incubation by liquid-chromatography-coupled mass spectrometry (LC–MS). Conditions: 2 µM.
In the case of `COC(=O)Nc1nc2ccc(C(=O)c3ccccc3)cc2[nH]1` [MEBENDAZOLE], the “Bacterial Biotransformation” value is “Compound NOT metabolized”.

As to `COCCCC/C(=N\OCCN)c1ccc(C(F)(F)F)cc1.O=C(O)/C=C\C(=O)O` [FLUVOXAMINE MALEATE], the “Bacterial Biotransformation” value is on record as “Compound NOT metabolized”.

In the case of `Fc1ccc([C@@H]2CCNC[C@H]2COc2ccc3c(c2)OCO3)cc1` [PAROXETINE], the “Bacterial Biotransformation” value is reported as “Compound NOT metabolized”.

Another data set can be described thus: The drug is tested on Clostridium scindens strain: ATCC35704 for biotransformation. The drug concentrations were measured before and after a 12-h incubation by liquid-chromatography-coupled mass spectrometry (LC–MS). Conditions: 2 µM.
Consider `COC(=O)Nc1nc2ccc(C(=O)c3ccccc3)cc2[nH]1` [MEBENDAZOLE], for which the “Bacterial Biotransformation” value is reported as “Compound NOT metabolized”.

As for `COCCCC/C(=N\OCCN)c1ccc(C(F)(F)F)cc1.O=C(O)/C=C\C(=O)O` [FLUVOXAMINE MALEATE], the “Bacterial Biotransformation” value is recorded as “Compound NOT metabolized”.

For the molecule `Fc1ccc([C@@H]2CCNC[C@H]2COc2ccc3c(c2)OCO3)cc1` [PAROXETINE], the “Bacterial Biotransformation” value is listed as “Compound NOT metabolized”.

The nature of the next data set: The drug is tested on Bifidobacterium breve strain: DSM20213 for biotransformation. The drug concentrations were measured before and after a 12-h incubation by liquid-chromatography-coupled mass spectrometry (LC–MS). Conditions: 2 µM.
With `COC(=O)Nc1nc2ccc(C(=O)c3ccccc3)cc2[nH]1` [MEBENDAZOLE], the “Bacterial Biotransformation” value was “Compound NOT metabolized”.

`COCCCC/C(=N\OCCN)c1ccc(C(F)(F)F)cc1.O=C(O)/C=C\C(=O)O` [FLUVOXAMINE MALEATE]: the “Bacterial Biotransformation” value is given as “Compound NOT metabolized”.

As to `Fc1ccc([C@@H]2CCNC[C@H]2COc2ccc3c(c2)OCO3)cc1` [PAROXETINE], the “Bacterial Biotransformation” value is recorded as “Compound NOT metabolized”.

The nature of a further data set: The drug is tested on Providencia rettgeri strain: DSM1131 for biotransformation. The drug concentrations were measured before and after a 12-h incubation by liquid-chromatography-coupled mass spectrometry (LC–MS). The format is ADME. Also noted: dose 2 uM, timepoint 0 vs 12 hours. Conditions: 2 µM.
Take `COC(=O)Nc1nc2ccc(C(=O)c3ccccc3)cc2[nH]1` [MEBENDAZOLE]: the “Bacterial Biotransformation” value is given as “Compound NOT metabolized”.

`COCCCC/C(=N\OCCN)c1ccc(C(F)(F)F)cc1.O=C(O)/C=C\C(=O)O` [FLUVOXAMINE MALEATE]: the “Bacterial Biotransformation” value is “Compound NOT metabolized”.

Consider `Fc1ccc([C@@H]2CCNC[C@H]2COc2ccc3c(c2)OCO3)cc1` [PAROXETINE], for which the “Bacterial Biotransformation” value was “Compound NOT metabolized”.

The conditions of another data set: parabacteroides johnsonii, 12 h, 2 µM.
Description: The drug is tested on Parabacteroides johnsonii strain: DSM18315 for biotransformation. The drug concentrations were measured before and after a 12-h incubation by liquid-chromatography-coupled mass spectrometry (LC–MS)
Take `COC(=O)Nc1nc2ccc(C(=O)c3ccccc3)cc2[nH]1` [MEBENDAZOLE]: the “Bacterial Biotransformation” value is on record as “Compound NOT metabolized”.

`COCCCC/C(=N\OCCN)c1ccc(C(F)(F)F)cc1.O=C(O)/C=C\C(=O)O` [FLUVOXAMINE MALEATE]: the “Bacterial Biotransformation” value was “Compound NOT metabolized”.

Take `Fc1ccc([C@@H]2CCNC[C@H]2COc2ccc3c(c2)OCO3)cc1` [PAROXETINE]: the “Bacterial Biotransformation” value was “Compound metabolized”.

A short description of a further data set: The drug is tested on Bacteroides cellulosilyticus strain: DSM14838 for biotransformation. The drug concentrations were measured before and after a 12-h incubation by liquid-chromatography-coupled mass spectrometry (LC–MS). Conditions: 2 µM.
Consider `COC(=O)Nc1nc2ccc(C(=O)c3ccccc3)cc2[nH]1` [MEBENDAZOLE], for which the “Bacterial Biotransformation” value is reported as “Compound NOT metabolized”.

Turning to `COCCCC/C(=N\OCCN)c1ccc(C(F)(F)F)cc1.O=C(O)/C=C\C(=O)O` [FLUVOXAMINE MALEATE], the “Bacterial Biotransformation” value is given as “Compound NOT metabolized”.

`Fc1ccc([C@@H]2CCNC[C@H]2COc2ccc3c(c2)OCO3)cc1` [PAROXETINE]: the “Bacterial Biotransformation” value is given as “Compound metabolized”.

For the next data set the following is noted: bacteroides thetaiotaomicron, 12 h, 2 µM.
Description: The drug is tested on Bacteroides thetaiotaomicron strain: VPI-5482 for biotransformation. The drug concentrations were measured before and after a 12-h incubation by liquid-chromatography-coupled mass spectrometry (LC–MS)
In the case of `COC(=O)Nc1nc2ccc(C(=O)c3ccccc3)cc2[nH]1` [MEBENDAZOLE], the “Bacterial Biotransformation” value is “Compound metabolized”.

As to `COCCCC/C(=N\OCCN)c1ccc(C(F)(F)F)cc1.O=C(O)/C=C\C(=O)O` [FLUVOXAMINE MALEATE], the “Bacterial Biotransformation” value is reported as “Compound metabolized”.

In the case of `Fc1ccc([C@@H]2CCNC[C@H]2COc2ccc3c(c2)OCO3)cc1` [PAROXETINE], the “Bacterial Biotransformation” value is listed as “Compound NOT metabolized”.

A further data set in a line: The drug is tested on Blautia hansenii strain: DSM20583 for biotransformation. The drug concentrations were measured before and after a 12-h incubation by liquid-chromatography-coupled mass spectrometry (LC–MS). Conditions: 2 µM.
Regarding `COC(=O)Nc1nc2ccc(C(=O)c3ccccc3)cc2[nH]1` [MEBENDAZOLE], the “Bacterial Biotransformation” value is “Compound metabolized”.

Regarding `COCCCC/C(=N\OCCN)c1ccc(C(F)(F)F)cc1.O=C(O)/C=C\C(=O)O` [FLUVOXAMINE MALEATE], the “Bacterial Biotransformation” value is “Compound metabolized”.

With `Fc1ccc([C@@H]2CCNC[C@H]2COc2ccc3c(c2)OCO3)cc1` [PAROXETINE], the “Bacterial Biotransformation” value was “Compound NOT metabolized”.

For another data set the following is noted: bifidobacterium adolescentis, 12 h, 2 µM.
Description: The drug is tested on Bifidobacterium adolescentis strain: ATCC 15703 for biotransformation. The drug concentrations were measured before and after a 12-h incubation by liquid-chromatography-coupled mass spectrometry (LC–MS)
For the molecule `COCCCC/C(=N\OCCN)c1ccc(C(F)(F)F)cc1.O=C(O)/C=C\C(=O)O` [FLUVOXAMINE MALEATE], the “Bacterial Biotransformation” value is listed as “Compound NOT metabolized”.

For `Fc1ccc([C@@H]2CCNC[C@H]2COc2ccc3c(c2)OCO3)cc1` [PAROXETINE], the “Bacterial Biotransformation” value is on record as “Compound NOT metabolized”.

Another data set can be described thus: The drug is tested on Odoribacter splanchnicus strain: fecal isolate for biotransformation. The drug concentrations were measured before and after a 12-h incubation by liquid-chromatography-coupled mass spectrometry (LC–MS). Conditions: 2 µM.
As for `COC(=O)Nc1nc2ccc(C(=O)c3ccccc3)cc2[nH]1` [MEBENDAZOLE], the “Bacterial Biotransformation” value is “Compound metabolized”.

On to `Fc1ccc([C@@H]2CCNC[C@H]2COc2ccc3c(c2)OCO3)cc1` [PAROXETINE], for which the “Bacterial Biotransformation” value is “Compound NOT metabolized”.

The conditions of a further data set: segatella copri, 12 h, 2 µM.
Description: The drug is tested on Prevotella copri strain: DSM18205 for biotransformation. The drug concentrations were measured before and after a 12-h incubation by liquid-chromatography-coupled mass spectrometry (LC–MS)
Take `Fc1ccc([C@@H]2CCNC[C@H]2COc2ccc3c(c2)OCO3)cc1` [PAROXETINE]: the “Bacterial Biotransformation” value is “Compound NOT metabolized”.
